This is an account of results in article PMC2897950 (Cellular microbiology, 2010).

This assay has as its target T1, EhSir2a (EhSir2a-HH) (Entamoeba histolytica, UniProt C4LSH3).
T1 sequence (C4LSH3 1-383): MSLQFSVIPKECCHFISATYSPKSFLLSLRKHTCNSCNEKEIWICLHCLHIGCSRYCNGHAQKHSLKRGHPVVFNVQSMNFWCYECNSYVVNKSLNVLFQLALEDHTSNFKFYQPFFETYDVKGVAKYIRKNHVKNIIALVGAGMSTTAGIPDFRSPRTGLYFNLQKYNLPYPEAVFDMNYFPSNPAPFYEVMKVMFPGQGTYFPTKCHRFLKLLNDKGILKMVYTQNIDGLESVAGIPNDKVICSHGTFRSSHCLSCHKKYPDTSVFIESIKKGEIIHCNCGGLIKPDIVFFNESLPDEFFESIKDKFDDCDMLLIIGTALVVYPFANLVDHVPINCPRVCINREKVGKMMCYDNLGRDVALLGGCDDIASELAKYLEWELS
The assay is described as follows: fluorescent deacetylase assay. The conditions noted are these: 500 µM NAD+, 37 °C, 2 h; co-substrate of deacetylation. In kind it is biochemical.

As to `NC(=O)c1ccc[n+]([C@@H]2O[C@H](COP(=O)(O)OP(=O)(O)OC[C@H]3O[C@@H](n4cnc5c(N)ncnc54)[C@H](O)[C@@H]3O)[C@@H](O)[C@H]2O)c1` [NAD^+], the “fluorescent deacetylase assay (Biomol kit), enzyme on Ni-NTA beads” value is on record as “EhSir2a showed high levels of deacetylase activity when NAD^+ was added”.
